Results on two molecules are retold here after patent US6649654B1, “Methods for identifying and using IKK inhibitors” (The Regents of the University of California, priority 1999, dated 2003).

Assay [1] deals with IKK (Homo sapiens, UniProt O14920+O15111). As to the kind of experiment: TNFα-induced IKK activity in human peripheral blood monocytes. It counts as cell-based.
For assay [2], the target named is T1, peroxisome proliferator-activated receptor-γ (PPAR-γ) (Homo sapiens, UniProt P37231).
T1 sequence (P37231 1-505): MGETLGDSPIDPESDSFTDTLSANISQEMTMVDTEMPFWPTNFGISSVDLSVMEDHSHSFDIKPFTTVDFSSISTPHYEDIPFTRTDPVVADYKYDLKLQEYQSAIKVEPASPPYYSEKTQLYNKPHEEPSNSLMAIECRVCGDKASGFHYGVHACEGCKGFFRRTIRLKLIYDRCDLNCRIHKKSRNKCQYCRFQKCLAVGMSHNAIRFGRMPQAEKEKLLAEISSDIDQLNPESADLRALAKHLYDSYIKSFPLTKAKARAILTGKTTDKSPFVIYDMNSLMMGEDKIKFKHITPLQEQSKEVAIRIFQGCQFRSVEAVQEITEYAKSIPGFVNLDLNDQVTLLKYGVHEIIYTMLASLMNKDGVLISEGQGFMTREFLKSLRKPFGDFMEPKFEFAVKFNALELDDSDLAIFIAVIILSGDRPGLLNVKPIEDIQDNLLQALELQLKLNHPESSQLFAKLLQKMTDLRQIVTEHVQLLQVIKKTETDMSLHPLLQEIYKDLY
Conditions: Ricote et al.; Jiang et al.; cited from earlier work.

The target in assay [3] is T2, IKKβ(C179A) (Homo sapiens, UniProt O14920, C179A).
T2 sequence (O14920 1-756 C179A): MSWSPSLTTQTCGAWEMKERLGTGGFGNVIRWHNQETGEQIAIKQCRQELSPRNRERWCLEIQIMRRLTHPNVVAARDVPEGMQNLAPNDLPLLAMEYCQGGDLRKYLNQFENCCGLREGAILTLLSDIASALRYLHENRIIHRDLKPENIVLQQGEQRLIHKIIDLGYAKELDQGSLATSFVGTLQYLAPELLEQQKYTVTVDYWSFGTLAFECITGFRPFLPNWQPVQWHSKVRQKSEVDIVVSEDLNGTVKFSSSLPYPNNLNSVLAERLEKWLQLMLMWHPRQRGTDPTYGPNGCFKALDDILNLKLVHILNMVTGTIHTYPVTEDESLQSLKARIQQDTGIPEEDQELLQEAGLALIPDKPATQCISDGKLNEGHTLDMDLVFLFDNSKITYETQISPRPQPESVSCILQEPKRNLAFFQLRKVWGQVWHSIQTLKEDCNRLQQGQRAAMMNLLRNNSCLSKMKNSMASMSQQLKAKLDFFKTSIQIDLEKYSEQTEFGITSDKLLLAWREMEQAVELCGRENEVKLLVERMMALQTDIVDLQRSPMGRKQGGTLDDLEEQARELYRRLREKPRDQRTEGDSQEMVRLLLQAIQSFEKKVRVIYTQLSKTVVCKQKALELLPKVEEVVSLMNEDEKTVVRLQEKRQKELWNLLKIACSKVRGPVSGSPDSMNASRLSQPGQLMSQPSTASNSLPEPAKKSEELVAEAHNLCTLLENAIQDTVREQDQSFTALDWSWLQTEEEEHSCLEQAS
Kind of assay: 2XNFκB-LUC reporter in HeLa cells with NIK and IKKβ(C179A). The conditions noted are these: luciferase at 24 hours, FIG. 6E. Set-up: FLAG; made in house. The assay is classed as cell-based. Here is the method:
Recombinant IKKβ(C179A) was also resistant to concentrations of 15dPGJ2 that were inhibitory to wild-type IKKβ (as shown in FIG. 6D), and also to PGA1. An NF-κB dependent transcriptional reporter (2XNFκB-LUC) was preincubated with expression vector encoding either wild-type IKKβ or IKKβ(C179A). A NIK expression vector was included to ensure maximal IKK activation. […] FIG. 6E provides the results for HeLa cells transiently transfected with a 2×NF-κB-LUC reporter, a NIK expression vector and expression vectors for wild type IKKβ or IKKβ(C179A). At 3 hours post-transfection, cells were treated with 15dPGJ2 and at 24 hours, the luciferase activities were determined for duplicate samples. In each case, the maximal activity achieved in the absence of inhibitor was given an arbitrary value of 100% and the other values were calculated relative to this one.

The target of assay [4] is T3, IKKα (Homo sapiens, UniProt O14920+O15111).
T3 construct: expressed in transfected cells; host or cells: COS
Kind of assay: NIK-induced HA-tagged IKKα associated kinase activity in COS cells. It counts as cell-based. The conditions noted are these: PGA1 added immediately after or 18 hours after transfection. As for the experimental part: Cells used in the experiments described herein were cultured in either RPMI 1640 (Jurkat cells) or DMEM (HeLa and COS cells), supplemented with 10% FBS and antibiotics. Cells were stimulated with either 25 ng/ml TPA, 20 ng/ml recombinant TNFα, or 10 ng/ml interleukin 1β (Sigma). PGA1, 15dPGJ2, T×B2, LTB4, AA and other PGs (Cayman) dissolved in ethanol were used as well, as known in the art (See e.g., Rossi et al., 94:746-750 [1997]). Controls received equal amounts of ethanol. Transfections were performed using Lipofectamine Plus (GIBCO) for HeLa and COS cells and DEAE-dextran (Sigma) for Jurkat cells. Xpress-tagged NIK, Xpress-tagged MEKK1, HA-tagged IKKα, and HA-tagged IKKβ were also used (See e.g., Zandi et al., Science 281:1360-1363 [1998]; and Delhase et al., Science 284:309-313 [1999]). COX2 and cPLA2 expression vectors were obtained from Dr. L. Feng (See also, Hirose et al., J. Am. Soc. Nephrol., 9:408-416 [1998]). PGD synthase was cloned from HT29 colon carcinoma cell line cDNA by PCR and subcloned into a pCDNA3 vector. […]
Cell lysates were incubated with anti-IKKα (Pharmingen), anti-HA (12CA5; Pharmingen), anti-JNK1 (333.8; Pharmingen), or anti-p38 (New England Biolabs) for 2 hours. […] Endogenous IKK, HA-tagged IKKα, endogenous JNK1, and p38 activities were determined with GST-1κBα(1-54), GST-c-Jun(1-79), and GST-ATF2 as substrates.

Chain of IKK (O14920 whole entry): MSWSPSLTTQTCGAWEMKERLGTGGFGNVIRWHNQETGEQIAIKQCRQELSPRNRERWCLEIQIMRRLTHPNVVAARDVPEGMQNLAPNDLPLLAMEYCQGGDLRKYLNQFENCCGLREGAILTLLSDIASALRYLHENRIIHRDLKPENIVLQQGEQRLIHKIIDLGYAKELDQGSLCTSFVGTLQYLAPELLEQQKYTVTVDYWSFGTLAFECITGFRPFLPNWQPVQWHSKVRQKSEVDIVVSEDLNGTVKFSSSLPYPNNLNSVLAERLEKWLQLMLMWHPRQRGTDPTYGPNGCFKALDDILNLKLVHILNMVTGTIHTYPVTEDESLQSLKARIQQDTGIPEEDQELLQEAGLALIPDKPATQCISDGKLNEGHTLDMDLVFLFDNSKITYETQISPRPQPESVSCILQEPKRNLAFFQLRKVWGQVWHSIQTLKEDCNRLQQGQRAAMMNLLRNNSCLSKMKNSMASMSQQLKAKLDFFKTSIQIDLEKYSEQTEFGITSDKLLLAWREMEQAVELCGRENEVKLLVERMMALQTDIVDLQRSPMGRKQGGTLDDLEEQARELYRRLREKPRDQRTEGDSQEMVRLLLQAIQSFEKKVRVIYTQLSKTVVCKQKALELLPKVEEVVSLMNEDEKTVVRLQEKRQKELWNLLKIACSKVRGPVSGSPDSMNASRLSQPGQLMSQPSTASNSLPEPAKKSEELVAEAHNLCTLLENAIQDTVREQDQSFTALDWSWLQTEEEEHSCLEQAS
Chain of IKK (O15111 whole entry): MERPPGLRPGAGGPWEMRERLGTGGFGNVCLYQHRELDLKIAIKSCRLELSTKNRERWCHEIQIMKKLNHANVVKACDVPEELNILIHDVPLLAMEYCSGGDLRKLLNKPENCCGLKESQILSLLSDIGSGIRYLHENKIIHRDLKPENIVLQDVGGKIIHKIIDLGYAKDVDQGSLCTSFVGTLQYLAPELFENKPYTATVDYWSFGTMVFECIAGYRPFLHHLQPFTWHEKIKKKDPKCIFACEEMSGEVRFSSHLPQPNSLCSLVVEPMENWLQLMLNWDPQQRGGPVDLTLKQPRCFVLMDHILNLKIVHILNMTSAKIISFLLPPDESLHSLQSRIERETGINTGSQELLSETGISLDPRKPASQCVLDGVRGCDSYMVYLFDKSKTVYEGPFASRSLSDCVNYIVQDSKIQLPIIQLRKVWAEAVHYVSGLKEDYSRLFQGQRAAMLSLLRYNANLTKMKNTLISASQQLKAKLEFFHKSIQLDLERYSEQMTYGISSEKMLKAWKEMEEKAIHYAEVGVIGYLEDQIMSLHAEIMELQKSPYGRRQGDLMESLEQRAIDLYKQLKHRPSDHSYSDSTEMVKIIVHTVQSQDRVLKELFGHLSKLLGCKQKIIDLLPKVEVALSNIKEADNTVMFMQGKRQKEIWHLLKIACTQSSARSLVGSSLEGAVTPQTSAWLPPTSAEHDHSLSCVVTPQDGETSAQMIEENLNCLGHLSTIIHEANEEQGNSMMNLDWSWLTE
Chain of IKK (Q9Y6K9 whole entry partner): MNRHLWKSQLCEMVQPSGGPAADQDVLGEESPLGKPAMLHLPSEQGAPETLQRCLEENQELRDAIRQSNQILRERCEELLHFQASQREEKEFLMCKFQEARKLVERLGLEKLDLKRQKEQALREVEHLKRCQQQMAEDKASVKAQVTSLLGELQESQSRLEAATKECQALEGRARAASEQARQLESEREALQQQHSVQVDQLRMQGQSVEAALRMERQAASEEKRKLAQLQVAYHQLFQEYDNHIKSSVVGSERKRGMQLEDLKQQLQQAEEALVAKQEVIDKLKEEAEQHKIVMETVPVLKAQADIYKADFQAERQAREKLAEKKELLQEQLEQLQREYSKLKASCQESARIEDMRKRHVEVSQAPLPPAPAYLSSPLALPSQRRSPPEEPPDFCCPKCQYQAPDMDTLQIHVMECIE
T3 sequence (O15111 whole entry): as the sequence (O15111 whole entry) above
T3 sequence (O14920 whole entry): as the sequence (O14920 whole entry) above
T3 sequence (Q9Y6K9 whole entry partner): as the sequence (Q9Y6K9 whole entry partner) above

`CCCCC/C=C/C=C1/C(=O)C=C[C@@H]1C/C=C\CCCC(=O)O` [15dPGJ2, 15-deoxy-Δ^12-14-PGJ2]: the “effect on TNFα-induced IKK activity” value in assay [1] is on record as “inhibited”. For the same molecule, the “activation of PPAR-γ” value in assay [2] is listed as “activate”. The “sensitivity of NF-κB activation through IKKβ(C179A)” value in assay [3] was “insensitive”.
As to `CCCCC[C@H](O)/C=C/[C@H]1C=CC(=O)C1CCCCCCC(=O)O` (stereo partly shown) [PGA1, prostaglandin A1], the “effect on NIK-induced IKK activity (HA-IKKα)” value in assay [4] is listed as “inhibited”.
